# Data: patent US20130190404A1, “CRYSTALS OF CARBOPROST TROMETHAMINE AND THE PREPARATION METHOD AS WELL AS THE USES THEREOF” (SHANGHAI TECHWELL BIOPHARMACEUTICAL CO., LTD., priority 2010, published 2013)
# Assay: Purity and stability test: content of impurities by HPLC after sealed storage at 25° C. for 7 days
# Format: physicochemical
# Settings: for Content of impurities after stored at 25° C. for 7 days: sealed storage; for Content of impurities after stored at 25° C. for 7 days / Initial content of impurities: HPLC; for Initial content of impurities: before storage (baseline of the stability test)
# Method: In the following examples, high performance liquid chromatography (HPLC) method (European Pharmacopoeia) used for detecting the purity of the crystal of arboprost tromethamine obtained are listed as follows:
# Stationary phase: silica gel, particle size 5-μm
# Mobile phase: acetonitrile:aqueous Sodium Dihydrogen Phosphate (pH=2.5)=23:77 (V/V)
# Column temperature: 35° C.
# Detection wavelength: 200 nm
# In the present example, the samples from the comparative-example and examples were test for purity and stability. The method for testing is described as follows:
# The samples from comparative-example 1, example 2 and example 4 were obtained and kept at 25° C. for 7 days in sealed storage. And then the content of impurities in each sample was tested.
SMILES,Content of impurities after stored at 25° C. for 7 days,Initial content of impurities,"stability after storage (in words) (after stored for a long time, conclusion from the table)"
"CCCCC[C@](C)(O)/C=C/[C@@H]1[C@@H](C/C=C\CCCC(=O)O)[C@@H](O)C[C@H]1O [Example 4, carboprost tromethamine]",0.2%,0.2%,
"CCCCC[C@](C)(O)/C=C/[C@@H]1[C@@H](C/C=C\CCCC(=O)O)[C@@H](O)C[C@H]1O [crystal of carboprost tromethamine, 2-amino-2-(hydroxymethyl)propan-1,3-diol(5Z)-7-[(1R,2R,3R,5S)-3,5-dihydroxy-2-[(1E,3S)-3-hydroxy-3-methyl-1-octene]cyclopentyl]-5-heptylic acid]",,,excellent stability
"CCCCC[C@](C)(O)/C=C/[C@@H]1[C@@H](C/C=C\CCCC(=O)O)[C@@H](O)C[C@H]1O [Example 2, carboprost tromethamine]",0.3%,0.3%,
"CCCCC[C@](C)(O)/C=C/[C@@H]1[C@@H](C/C=C\CCCC(=O)O)[C@@H](O)C[C@H]1O [compound 1, carboprost tromethamine]",4.0%,0.5%,
